≈ marks a conversion by molar mass, not a printed value. Calls of active or inactive are those of the source. No cut-off for these calls is given here. Starred links: 1 amine or outer side, 2 acyl side, 3 side chain; linkers in the order of their positions; H or OH if unused. Positions of bridges follow the written chain, without caps; N, C: chain ends. Non-standard residues stand in square brackets, D forms with d. Residues, ends and D or L forms follow the SMILES beside them. X1 = O=C([C@H](CCCCNCC=[*:3])N[*:1])[*:2]
Assays:
Escherichia coli [1] = experiment: Antibacterial activity against Escherichia coli BNCC 133264 assessed as inhibition of bacterial growth incubated for 16 hrs by broth microdilution method; format: functional
Staphylococcus aureus [2] = experiment: Antibacterial activity against methicillin-resistant Staphylococcus aureus BNCC 186335 infected in mouse C57BL/6 assessed as reduction in intracellular bacterial burden in liver at 2 mg/kg ,ip incubated for 24 hrs; format: functional, organism-based
HEK-293T [3] = experiment: Cytotoxicity against human HEK293T cells assessed as cell survival rate at 256 ug/ml incubated for 24 hrs by MTT assay; format: toxicity, cell-based; conditions: dose 256 µg/ml
Cell membrane [4] = experiment: Induction of membrane damage in methicillin-resistant Staphylococcus aureus BNCC 186335 assessed as concentration of stained cells incubated for 2 hrs by propidium iodide staining based flow cytometer assay; format: subcellular; conditions: DDE = dose-dependent effect
[5] = Toxicity in C57BL/6 mouse assessed as effect on body weight at 5 to 20 mg/kg, ip administered once daily for 5 days and measured every 24 hrs; format: organism-based; conditions: in vivo, 120 h, dose 5-20 mg/kg, time 5 day
[6] = Stability in human plasma assessed as half life measured after 24 hrs by HPLC analysis; format: ADME, cell-free
Cell membrane [7] = experiment: Induction of membrane damage in multidrug-resistant Acinetobacter baumannii assessed as concentration of stained cells incubated for 2 hrs by propidium iodide staining based flow cytometer assay; format: subcellular; conditions: dose 16.0 µg/ml
Cell membrane [8] = experiment: Induction of membrane disruption in methicillin-resistant Staphylococcus aureus BNCC 186335 assessed as loss of cell integrity at 16 ug/ml measured after 2 hrs by SEM analysis; format: subcellular; conditions: dose 16.0 µg/ml
[9] = Toxicity in C57BL/6 mouse assessed as effect on aspartate transaminase level at 5 to 20 mg/kg, ip administered once daily for 5 days and measured after 6 days; format: organism-based; conditions: in vivo, 120 h, dose 5-20 mg/kg, time 5 day
[10] = Toxicity in C57BL/6 mouse assessed as abnormalities and pathological changes in liver at 20 mg/kg, ip administered once daily for 5 days by H and E staining based assay; format: organism-based; conditions: in vivo, 120 h, time 5 day
Cell membrane [11] = experiment: Induction of membrane damage in methicillin-resistant Staphylococcus aureus BNCC 186335 assessed as disruption of membrane integrity at 16 ug/ml incubated for 2 hrs by propidium iodide staining based assay; conditions: dose 16.0 µg/ml
Acinetobacter baumannii [12] = experiment: Antibacterial activity against multidrug-resistant Acinetobacter baumannii assessed as inhibition of bacterial growth incubated for 16 hrs by broth microdilution method; format: functional
[13] = Toxicity in C57BL/6 mouse assessed as effect on alanine aminotransferase level at 5 to 20 mg/kg, ip administered once daily for 5 days and measured after 6 days; format: organism-based; conditions: in vivo, 120 h, dose 5-20 mg/kg, time 5 day
Escherichia coli [14] = experiment: Antibacterial activity against multidrug-resistant Escherichia coli BNCC 133264 assessed as inhibition of bacterial growth incubated for 16 hrs by broth microdilution method; format: functional
Listeria monocytogenes = experiment: Antibacterial activity against Listeria monocytogenes assessed as inhibition of bacterial growth incubated for 16 hrs by broth microdilution method; format: functional
Pseudomonas aeruginosa [15] = experiment: Antibacterial activity against multidrug-resistant Pseudomonas aeruginosa BNCC 125486 assessed as inhibition of bacterial growth incubated for 16 hrs by broth microdilution method; format: functional
[16] = Toxicity in C57BL/6 mouse assessed as effect on blood urea nitrogen level at 5 to 20 mg/kg, ip administered once daily for 5 days and measured after 6 days; format: organism-based; conditions: in vivo, 120 h, dose 5-20 mg/kg, time 5 day
[17] = Toxicity in C57BL/6 mouse assessed as abnormalities and pathological changes in kidney at 20 mg/kg, ip administered once daily for 5 days by H and E staining based assay; format: organism-based; conditions: in vivo, 120 h, time 5 day
HEK-293T [18] = experiment: Cytotoxicity against human HEK293T cells assessed as cell survival rate at 64 Ug/ml incubated for 24 hrs by MTT assay relative to control; format: toxicity, cell-based; conditions: dose 64 µg/ml
Staphylococcus aureus [19] = experiment: Antibacterial activity against multidrug-resistant Staphylococcus aureus BNCC 186335 assessed as inhibition of bacterial growth incubated for 16 hrs by broth microdilution method; format: functional
Staphylococcus aureus [20] = experiment: Antibacterial activity against methicillin-resistant Staphylococcus aureus assessed as inhibition of bacterial growth incubated for 16 hrs by broth microdilution method; format: functional
Cell membrane [21] = experiment: Induction of membrane disruption in multidrug-resistant Acinetobacter baumannii assessed as loss of cell integrity at 16 ug/ml measured after 2 hrs by SEM analysis; format: subcellular; conditions: dose 16.0 µg/ml
Staphylococcus aureus [22] = experiment: Antibacterial activity against methicillin-resistant Staphylococcus aureus BNCC 186335 assessed as inhibition of bacterial growth incubated for 4 hrs in presence of 25% plasma by broth microdilution method; format: functional
Escherichia coli [23] = experiment: Antibacterial activity against cephalosporin-resistant Escherichia coli BNCC 133264 assessed as inhibition of bacterial growth incubated for 16 hrs by broth microdilution method; format: functional
Enterococcus faecium = experiment: Antibacterial activity against multidrug-resistant Enterococcus faecium assessed as inhibition of bacterial growth incubated for 16 hrs by broth microdilution method; format: functional
Erythrocyte = experiment: Hemolytic activity against human RBC assessed as concentration required to cause 10% hemolysis; format: toxicity, cell-based
Klebsiella pneumoniae = experiment: Antibacterial activity against multidrug-resistant Klebsiella pneumoniae assessed as inhibition of bacterial growth incubated for 16 hrs by broth microdilution method; format: functional
Staphylococcus aureus [24] = experiment: Drug resistance development in Staphylococcus aureus assessed as change in MIC at sub-MIC concentration measured after 60 passages; format: functional, organism-based
Acinetobacter baumannii [25] = experiment: Bactericidal activity against multidrug-resistant Acinetobacter baumannii assessed as log reduction in colony forming unit at 32 ug/ml measured after 10 mins by time kill assay; format: functional, organism-based; conditions: dose 32.0 µg/ml
Pseudomonas aeruginosa [26] = experiment: Antibacterial activity against Pseudomonas aeruginosa BNCC 125486 assessed as inhibition of bacterial growth incubated for 16 hrs by broth microdilution method; format: functional
Staphylococcus aureus [27] = experiment: Antibacterial activity against Staphylococcus aureus BNCC 186335 assessed as inhibition of bacterial growth incubated for 16 hrs by broth microdilution method; format: functional
Staphylococcus aureus [28] = experiment: Antibacterial activity against methicillin-resistant Staphylococcus aureus BNCC 186335 infected in mouse C57BL/6 assessed as reduction in intracellular bacterial burden in spleen at 2 mg/kg ,ip incubated for 24 hrs; format: functional, organism-based

CC(C)[C@H](N)C(=O)N[C@@H](CCCCN)C(=O)N[C@@H](CCCNC(=N)N)C(=O)N[C@@H](Cc1ccccc1)C(=O)N[C@@H](CCCCN)C(=O)N[C@H]1CCCCNC/C=C/CNCCCC[C@@H](C(=O)N[C@@H](Cc2ccccc2)C(=O)N[C@@H](CCCCN)C(=O)N[C@@H](CCCCN)C(=O)N[C@@H](Cc2ccccc2)C(=O)N[C@H](C(N)=O)C(C)C)NC(=O)[C@H](CCCNC(=N)N)NC(=O)[C@H](Cc2ccccc2)NC(=O)[C@H](Cc2ccccc2)NC1=O (H-VKRFK[X1]FFR[X1]FKKFV-NH2; staple (E) 6-10)
MIC (Escherichia coli [1]): 2 µg/mL (≈ 0.959 µM)
Activity (Staphylococcus aureus [2]): Active
Activity (HEK-293T [3]): Toxic
Activity (Cell membrane [4]): Dde
Activity [5]: Non-Toxic
half-life [6]: 13 h
Activity (Cell membrane [7]): 80%
Activity (Cell membrane [8]): Active
Activity [9]: Non-Toxic
Activity [10]: Non-Toxic
Activity (Cell membrane [11]): Active
MIC (Acinetobacter baumannii [12]): 4 µg/mL (≈ 1.92 µM)
Activity [13]: Non-Toxic
MIC (Escherichia coli [14]): 4 µg/mL (≈ 1.92 µM)
MIC (Listeria monocytogenes): 4 µg/mL (≈ 1.92 µM)
MIC (Pseudomonas aeruginosa [15]): 8 µg/mL (≈ 3.84 µM)
Activity [16]: Non-Toxic
Activity [17]: Non-Toxic
Activity (HEK-293T [18]): Toxic
MIC (Staphylococcus aureus [19]): 8 µg/mL (≈ 3.84 µM)
MIC (Staphylococcus aureus [20]): 2 µg/mL (≈ 0.959 µM)
Activity (Cell membrane [21]): Active
Activity (Staphylococcus aureus [22]): Active
MIC (Escherichia coli [23]): 8 µg/mL (≈ 3.84 µM)
MIC (Enterococcus faecium): 4 µg/mL (≈ 1.92 µM)
MHC (Erythrocyte): > 128 µg/mL
MIC (Klebsiella pneumoniae): 32 µg/mL (≈ 15.4 µM)
Activity (Staphylococcus aureus [24]): Active
Activity (Acinetobacter baumannii [25]): Active
MIC (Pseudomonas aeruginosa [26]): 16 µg/mL (≈ 7.68 µM)
MIC (Staphylococcus aureus [27]): 2 µg/mL (≈ 0.959 µM)
Activity (Staphylococcus aureus [28]): Active

Source: ChEMBL document CHEMBL5154678, “Lysine Stapling Screening Provides Stable and Low Toxic Cationic Antimicrobial Peptides Combating Multidrug-Resistant Bacteria In Vitro and In Vivo” (J Med Chem, 2022)
